Measured values taken from patent publication US12691070B2, “Cationic lipids and preparation method thereof” (RiboX Therapeutics HK Limited, priority 2023, dated 2026).

Legend:
[1] = LNP size and polydispersity index (PDI) by dynamic light scattering; format: physicochemical; conditions: LNP with cirRNA (SEQ ID NO: 1); for Size: in nm (unit assumed)
Method: (§1) Ionizable lipid, DSPC, Cholesterol and DMG-PEG 2000 were mixed at a molar ratio of 50:10:38.5:1.5 in absolute ethanol. Circular RNA and linear mRNA payloads were suspended in 25 mM Acetate Buffer (pH 4.5). To form LNPs, three volumes of luciferase encoding RNA, in the form of cirRNA (SEQ ID NO:1) and mRNA (SEQ ID NO:2) respectively, were mixed with one volume of lipids in ethanol solution by microfluidic mixing with the Nanoassemblr Ignite (Precision Nanosystems) at a flow rate of 12 ml/min. The molar ratio of ionizable lipid to ribonucleotide was 15 or 6. The final lipid concentration in solution ranged from 1.5 mM to 6 mM. After encapsulation, the particles were dialyzed twice against PBS.
(§2) The LNP size and polydispersity index (PDI), determined by dynamic light scattering (DLS), and zeta potential were measured by a Zetasizer machine (Malvern). RNA concentration and encapsulation efficacy were analyzed by the Quant-IT Ribogreen kit by calculating the percentage encapsulation at 100%−(RNA-LNPs/RNA-LNPs with Triton X-100).

[2] = LNP zeta potential (Zetasizer); format: physicochemical; conditions: LNP with cirRNA (SEQ ID NO: 1)
Method: as §1, §2

[3] = RNA encapsulation efficacy by Quant-IT Ribogreen kit; format: physicochemical; conditions: LNP with cirRNA (SEQ ID NO: 1)
Method: as §1, §2

Hep G2 cells [4] = experiment: In vitro expression of firefly-luciferase, Hep G2; format: cell-based; conditions: cirRNA (SEQ ID NO: 1) LNPs; firefly-luciferase luminescence; Hep G2 cells
Method: (§3) RAW 264.7 and Hep G2 cells were transfected with 100 ng/mL of RNA-LNPs encoding for firefly-luciferase. At 72 hours post transfection, the cells were washed and lysed. The luciferase expression was determined in the cell lysates with the luciferase assay reagent kit (Promega), according to the kit protocol, luciferase activity was measured by a luminometer.

RAW 264.7 cells [5] = experiment: In vitro expression of firefly-luciferase, RAW 264.7; format: cell-based; conditions: cirRNA (SEQ ID NO: 1) LNPs; firefly-luciferase luminescence; RAW 264.7 cells
Method: as §3

Hep G2 cells [6] = experiment: In vitro toxicity (CellTiter-Glo cell viability), Hep G2; format: cell-based; conditions: cirRNA (SEQ ID NO: 1) LNPs; Hep G2 cells;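 note: percent of untreated cells luminescence signal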
Method: (§4) RAW 264.7 and Hep G2 cells were transfected with 1 μg/mL RNA-LNPs. At 72 hours post transfection, cell viability was determined with the CellTiter-Glo® reagent kit, according to the kit protocol, measured by a luminometer.
(§5) The cell viability was calculated according to the following formula: […]

RAW 264.7 cells [7] = experiment: In vitro toxicity (CellTiter-Glo cell viability), RAW 264.7; format: cell-based; conditions: cirRNA (SEQ ID NO: 1) LNPs; RAW 264.7 cells;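 note: percent of untreated cells luminescence signal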
Method: as §4, §5

BALB/C mice = experiment: In vivo expression, whole-body luminescence (IVIS); conditions: cirRNA (SEQ ID NO: 1) LNPs, BALB/C mice
Method: 6-8 week old, female BALB/C mice were injected with 0.05 mg*kg-1 of RNA-LNPs encoding for firefly-luciferase by intravenous injection. At 6 hours post injection, animals were intraperitoneally injected with 15 mg/ml of Luciferin substrate and whole-body luminescence was determined by a bioluminescent in vivo imaging system (IVIS).

Row | PDI [1] | Size [1] | Zeta (mV) [2] [mV] | Encapsulation Efficiency % [3] [%] | Compound | In vitro Expression HepG2 (Hep G2 cells [4]) | In vitro Expression RAW (RAW 264.7 cells [5]) | In vitro Viability HepG2 (Hep G2 cells [6]) [%] | In vitro Viability RAW (RAW 264.7 cells [7]) [%] | In vivo Expression (Whole Body) (BALB/C mice)
1 | 0.115 | 116.3 | −6.298 | 71 | CCCCC/C=C\C/C=C\CCCCCCCCN(CCCCCCCC/C=C\C/C=C\CCCCC)CCOC(=O)NCc1ccncc1 [Lipid 35, 2-(di((9Z,12Z)-octadeca-9,12-dien-1-yl)amino)ethyl (pyridin-4-ylmethyl)carbamate] | 2.82E+02 | 6.25E+03 | 103 | 108 | 1.16E+05
2 | 0.138 | 125.4 | −3.556 | 96 | CCCCC/C=C\C/C=C\CCCCCCCCN(CCCCCCCC/C=C\C/C=C\CCCCC)CCOC(=O)NCCN1CCOCC1 [Lipid 36, 2-(di((9Z,12Z)-octadeca-9,12-dien-1-yl)amino)ethyl (2-morpholinoethyl)carbamate] | 9.18E+04 | 2.03E+04 | 82 | 95 | 1.21E+05
3 | 0.138 | 145.8 | 4.079 | 95 | CCCCC/C=C\C/C=C\CCCCCCCCN(CCCCCCCC/C=C\C/C=C\CCCCC)CCOC(=O)NCCN1CCN(C)CC1 [Lipid 37, 2-(di((9Z,12Z)-octadeca-9,12-dien-1-yl)amino)ethyl (2-(4-methylpiperazin-1-yl)ethyl)carbamate] | 5.96E+05 | 1.98E+04 | 87 | 92 | 1.16E+05
4 | 0.07 | 169.5 | −3.335 | 91 | CCCCC/C=C\C/C=C\CCCCCCCCN(CCCCCCCC/C=C\C/C=C\CCCCC)CCOC(=O)NCc1ncc[nH]1 [Lipid 39, 2-(di((9Z,12Z)-octadeca-9,12-dien-1-yl)amino)ethyl ((1H-imidazol-2-yl)methyl)carbamate] | 8.11E+02 | 2.58E+03 | 90 | 96 | 1.15E+04
5 | 0.163 | 186 | 5.74 | 91 | CCCCC/C=C\C/C=C\CCCCCCCCN(CCCCCCCC/C=C\C/C=C\CCCCC)CCOC(=O)NCCN(C)C [Lipid 41, 2-(di((9Z,12Z)-octadeca-9,12-dien-1-yl)amino)ethyl (2-(dimethylamino)ethyl)carbamate] | 2.77E+01 | 1.12E+05 | 89 | 70 | 4.69E+04
6 | 0.088 | 137.6 | 3.255 | 100 | CCCCCCCCC(CCCCCC)C(=O)OCCCCCCCCN(CCCCCCCCCCC(=O)OCCCCCC)CCOC(=O)NCCN1CCN(C)CC1 (stereo not shown) [Lipid 46, hexyl 11-((8-((2-hexyldecanoyl)oxy)octyl)(2-(((2-(4-methylpiperazin-1-yl)ethyl)carbamoyl)oxy)ethyl)amino)undecanoate] | 3.70E+01 | 3.51E+02 | 102 | 99 | 1.92E+06
7 | – | – | – | – | CCCCC/C=C\C/C=C\CCCCCCCCN(CCCCCC(=O)OCC(CCCCCCCC)CCCCCCCCCC)CCOC(=O)NCCCN(C)C (stereo not shown) [Lipid 81, 2-octyldodecyl 2-methyl-11-((9Z,12Z)-octadeca-9,12-dien-1-yl)-7-oxo-8-oxa-2,6,11-triazaheptadecan-17-oate] | 6.71E+04 | 1.56E+03 | 121 | 107 | 1.15E+04
8 | – | – | – | – | CCCCC/C=C\C/C=C\CCCCCCCCN(CCCCCC(=O)OCC/C=C\CCCCC)CCOC(=O)NCc1ccncc1 [Lipid 99, (Z)-non-3-en-1-yl 6-(((9Z,12Z)-octadeca-9,12-dien-1-yl)(2-(((pyridin-4-ylmethyl)carbamoyl)oxy)ethyl)amino)hexanoate] | 1.13E+04 | 1.01E+04 | 78 | 137 | 5.53E+07
9 | – | – | – | – | CCCCCCCOC(=O)CCCCCCCCCN(CCCCCCCCCC(=O)OCCCCCCC)CCOC(=O)NCCN1CCCCC1 [Lipid 118, diheptyl 10,10′-((2-(((2-(piperidin-1-yl)ethyl)carbamoyl)oxy)ethyl)azanediyl)bis(decanoate)] | 1.43E+03 | 1.42E+04 | 19 | 8 | 7.90E+06
10 | – | – | – | – | CCCCCCOC(=O)CCCCCCCCCCN(CCCCCCCCCCC(=O)OCCCCCC)CCOC(=O)NCCN1CCOCC1 [Lipid 139, dihexyl 11,11′-((2-(((2-morpholinoethyl)carbamoyl)oxy)ethyl)azanediyl)diundecanoate] | 4.85E+01 | 1.64E+02 | 16 | 8 | 3.48E+06
11 | – | – | – | – | CCCCCCCCCCCOC(=O)CCCCCN(CCCCCC(=O)OCCCCCCCCCCC)CCOC(=O)NCCN1CCN(C)CC1 [Lipid 156, diundecyl 6,6′-((2-(((2-(4-methylpiperazin-1-yl)ethyl)carbamoyl)oxy)ethyl)azanediyl)dihexanoate] | 2.86E+04 | 1.67E+03 | 84 | 93 | 4.92E+04
12 | – | – | – | – | CCCCCCCCCCCOC(=O)CCCCCN(CCCCCCCC(=O)OC(CCCCCCCC)CCCCCCCC)CCOC(=O)NCCN1CCN(C)CC1 [Lipid 160, heptadecan-9-yl 8-((2-(((2-(4-methylpiperazin-1-yl)ethyl)carbamoyl)oxy)ethyl)(6-oxo-6-(undecyloxy)hexyl)amino)octanoate] | 6.38E+05 | 1.94E+04 | 94 | 93 | 4.44E+05
13 | – | – | – | – | CCCCCCCCCC(=O)OCCCCCCCN(CCCCCCCOC(=O)CCCCCCCCC)CCOC(=O)NCc1ncc[nH]1 [Lipid 176] | 6.28E+03 | 4.83E+04 | 88 | 93 | 1.31E+07
14 | – | – | – | – | CCCCC/C=C\CCOC(=O)CCCCCN(CCCCCCCCOC(=O)C(CCCCCC)CCCCCCCC)CCOC(=O)NCCN(C)C (stereo not shown) [Lipid 184] | 9.87E+04 | 1.93E+03 | 91 | 88 | 5.28E+07

Row | Compound | PDI [1] | Size [1] | Zeta (mV) [2] [mV] | Encapsulation Efficiency % [3] [%] | In vitro Expression HepG2 (Hep G2 cells [4]) | In vitro Expression RAW (RAW 264.7 cells [5]) | In vitro Viability HepG2 (Hep G2 cells [6]) [%] | In vitro Viability RAW (RAW 264.7 cells [7]) [%] | In vivo Expression (Whole Body) (BALB/C mice)
15 | CCCCCCCCC(CCCCCC)C(=O)OCCCCCCCCN(CCCCCCCCOC(=O)C(CCCCCC)CCCCCCCC)CCOC(=O)NCc1ccc(NC(=O)OC(C)(C)C)cc1 (stereo not shown) [Lipid 8, ((2-(((4-((tert-butoxycarbonyl)amino)benzyl)carbamoyl)oxy)ethyl)azanediyl)bis(octane-8,1-diyl) bis(2-hexyldecanoate)] | 0.162 | 80.1 | −20.4 | 84 | 2.33E+01 | 6.90E+01 | 110 | 105 | 9.52E+04
